The experiment deals with VRE. In words: Susceptibility of the subject's blood culture isolate (treatment history). Format: cell-based. An excerpt:
11, 2013; the plan was for at least 8 weeks of antibiotic therapy.

Regarding `CCCCCCCCCCNCCN[C@@]1(C)C[C@H](O[C@H]2[C@H](Oc3c4cc5cc3Oc3ccc(cc3Cl)[C@@H](O)[C@@H](NC(=O)[C@@H](CC(C)C)NC)C(=O)N[C@@H](CC(N)=O)C(=O)N[C@H]5C(=O)N[C@H]3C(=O)N[C@H](C(=O)N[C@H](C(=O)O)c5cc(O)c(CNCP(=O)(O)O)c(O)c5-c5cc3ccc5O)[C@H](O)c3ccc(c(Cl)c3)O4)O[C@H](CO)[C@@H](O)[C@@H]2O)O[C@@H](C)[C@H]1O` [televancin], for the setting “2012 December”, the susceptibility result is given as “resistant”. For the compound `CN(C)c1cc(NC(=O)CNC(C)(C)C)c(O)c2c1C[C@H]1C[C@H]3[C@H](N(C)C)C(O)=C(C(N)=O)C(=O)[C@@]3(O)C(O)=C1C2=O` [tigecycline], where the note is “2012 July”, the susceptibility entry was “susceptible”.

The record behind these values is patent US20160206688A1, “METHODS FOR TREATING BACTEREMIA AND OSTEOMYELITIS USING ORITAVANCIN” (THE MEDICINES COMPANY, priority 2013, published 2016).
